{
  "source": "patent US7943603B2",
  "about": "“Medical uses of a selective estrogen receptor modulator in combination with sex steroid precursors” (Endorecherche, Inc., priority 1998, dated 2011)",
  "key": {"[1]": {"test_system": "human ZR-75-1 breast tumor xenografts", "test": "Growth of human ZR-75-1 breast tumor xenografts in OVX nude mice supplemented with estrone", "conditions": "OVX+E1 0.5 μg nude mice, 9.5 months; for average tumor weight: E1 control 1.12±0.26"}, "[2]": {"test_system": "DMBA-induced mammary carcinoma", "test": "Development of DMBA-induced mammary carcinoma in the rat", "assay_type": "in vivo", "conditions": "279 days after DMBA", "experimental": "Female Sprague-Dawley rats [Crl:CD(SD)Br] were obtained at 44-46 days of age from Charles River Canada Inc. (St. Constant, Quebec) and housed 2 per cage in a light (12 h light/day; lights on at 07:15 h)-and temperature (22±2° C.)-controlled environment. Animals received Purina rodent chow and tap water ad libitum. The animal studies were conducted in a Canadian Council on Animal Care (CCAC)-approved facility in agreement with the CCAC Guide for Care and Use of Experimental Animals.\nMammary carcinomas were induced by a single intragastric administration of 20 mg of DMBA (Sigma Chemical Co., St. Louis, Mo.) in 1 ml of corn oil at 50-52 days of age. Two months later, tumor measurement was performed biweekly. The two largest perpendicular diameters of each tumor were recorded with calipers to estimate tumor size as described (Asselin et al., Endocrinology 101: 666-671, 1977). Tumor site, size and number were recorded.\n(§1) The animals were randomly divided into groups each containing 20 rats with the exception of 40 animals in the control group. […] Treatment was initiated 3 days before the oral administration of DMBA. EM-800 was synthesized in the Medicinal Chemistry Division of our laboratory while DHEA was purchased from Steraloids Inc., Wilton, N.H.\nMany of the control animals and some of EM-800- or DHEA-treated animals were sacrificed by cervical dislocation under isoflurane-induced anesthesia 6 months after DMBA administration because of the too large size of tumors. The values of tumor size and number of these rats at sacrifice, together with those measured at later time intervals from the surviving animals, were used for the later analysis of the incidence of tumors, average tumor number per tumor-bearing rat and average tumor size per tumor-bearing animal. […] Rats were sacrificed 279 days after DMBA administration.\nStatistical significance was measured according to the multiple range test of Duncan-Kramer (Biometrics 12: 307-310, 1956). Analysis of the incidence of development of mammary tumors was performed using the Fisher's exact test (Conover, Practical nonparametric statistics, 2nd Edition 153-170, 1980). The data are presented as means±S.E.M."}, "estrogen receptor": {"target": "T1, estrogen receptor (Homo sapiens, UniProt P03372)", "T1 sequence (P03372 1-595)": "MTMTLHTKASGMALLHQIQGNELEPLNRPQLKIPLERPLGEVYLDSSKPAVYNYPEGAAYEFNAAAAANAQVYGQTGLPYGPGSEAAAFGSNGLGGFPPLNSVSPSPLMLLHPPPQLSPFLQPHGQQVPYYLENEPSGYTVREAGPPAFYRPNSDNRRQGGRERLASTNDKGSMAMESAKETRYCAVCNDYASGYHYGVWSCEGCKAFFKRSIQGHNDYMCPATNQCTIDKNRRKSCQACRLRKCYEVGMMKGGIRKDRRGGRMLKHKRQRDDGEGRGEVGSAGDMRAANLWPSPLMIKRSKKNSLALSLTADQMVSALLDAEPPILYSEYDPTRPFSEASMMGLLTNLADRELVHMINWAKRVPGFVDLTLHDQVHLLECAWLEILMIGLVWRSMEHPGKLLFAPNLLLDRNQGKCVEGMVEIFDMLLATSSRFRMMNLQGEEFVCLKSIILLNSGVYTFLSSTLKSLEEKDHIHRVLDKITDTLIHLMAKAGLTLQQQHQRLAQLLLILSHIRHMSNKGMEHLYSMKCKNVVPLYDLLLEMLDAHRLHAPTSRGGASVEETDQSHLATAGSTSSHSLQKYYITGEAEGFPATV", "test": "Testing of antiestrogens for function as SERM"}, "rat": {"test_system": "rat", "test": "Urine and serum biochemical parameters of bone metabolism", "assay_type": "in vivo", "conditions": "DHEA 10 mg percutaneously, EM-800 75 μg orally, once daily, alone or in combination, 9 months", "source_text": "as §1\nTwenty-four-hour urinary samples were collected at the end of the experiment from the first 9 rats of each group following transfer in metabolic cages (Allentown Caging Equipment Co., Allentown, N.J.). Two urinary samples were collected and analyzed on different days for each animal in order to minimize the influence of daily variation. Therefore, each value shown represents the mean of the two measurements performed on two different days. 0.5 ml of toluene was added into the urine collecting tubes to prevent urine evaporation and bacterial growth and the urinary volume was recorded. Trunk blood was collected at sacrifice and was allowed to clot at 4° C. overnight before centrifugation at 3000 rpm for 30 min.\nFresh samples were used for the assay of urinary creatinine, calcium, and phosphorus as well as serum total alkaline phosphatase (tALP) activity, cholesterol and triglycerides. These biochemical parameters were measured automatically with a Monarch 2000 Chemistry System (Instrumentation Laboratory Co. Lexington, Mass.) under Good Laboratory Practice conditions. Urinary hydroxyproline was measured as described (Podenphant et al., Clinica Chimica Acta 142: 145-148, 1984)."}},
  "note": "Values joined by “and” are separate entries in the source; they are usually repeats but may differ in a detail not shown here. Identical values can stand only once. “Also recorded” adds a separate entry of the source.",
  "data": [
    {"compound": "CC1=C(c2ccc(OC(=O)C(C)(C)C)cc2)[C@H](c2ccc(OCCN3CCCCC3)cc2)Oc2cc(OC(=O)C(C)(C)C)ccc21", "note": "[EM-800, (+)-7-pivaloyloxy-3-(4′-pivaloyloxyphenyl)-4-methyl-2-(4″-(2′″-piperidinoethoxy)phenyl)-2H-benzopyran]", "values": [
      {"measurement": "Complete response, (%)", "setting": "[1]; EM-800 15 μg orally daily", "result": 29.4, "unit": "%"},
      {"measurement": "Complete response, number", "setting": "[1]; EM-800 15 μg orally daily", "result": 5},
      {"measurement": "Partial response, (%)", "setting": "[1]; EM-800 15 μg orally daily", "result": 5.9, "unit": "%"},
      {"measurement": "Partial response, number", "setting": "[1]; EM-800 15 μg orally daily", "result": 1},
      {"measurement": "Progression, (%)", "setting": "[1]; EM-800 15 μg orally daily", "result": 35.3, "unit": "%"},
      {"measurement": "Progression, number", "setting": "[1]; EM-800 15 μg orally daily", "result": 6},
      {"measurement": "Stable response, (%)", "setting": "[1]; EM-800 15 μg orally daily", "result": 29.4, "unit": "%"},
      {"measurement": "Stable response, number", "setting": "[1]; EM-800 15 μg orally daily", "result": 5},
      {"measurement": "inhibition of estrogen-stimulated ZR-75-1 tumor size", "setting": "[1]; EM-800 15 μg orally daily", "result": "88% and 87.5%"},
      {"measurement": "average tumor weight", "setting": "[1]; EM-800 15 μg orally daily", "result": "0.08 ± 0.03", "unit": "g"},
      {"measurement": "Complete response, (%)", "setting": "[1]; EM-800 50 μg orally daily", "result": 25.0, "unit": "%"},
      {"measurement": "Complete response, number", "setting": "[1]; EM-800 50 μg orally daily", "result": 4},
      {"measurement": "Partial response, (%)", "setting": "[1]; EM-800 50 μg orally daily", "result": 18.8, "unit": "%"},
      {"measurement": "Partial response, number", "setting": "[1]; EM-800 50 μg orally daily", "result": 3},
      {"measurement": "Progression, (%)", "setting": "[1]; EM-800 50 μg orally daily", "result": 25.0, "unit": "%"},
      {"measurement": "Progression, number", "setting": "[1]; EM-800 50 μg orally daily", "result": 4},
      {"measurement": "Stable response, (%)", "setting": "[1]; EM-800 50 μg orally daily", "result": 31.2, "unit": "%"},
      {"measurement": "Stable response, number", "setting": "[1]; EM-800 50 μg orally daily", "result": 5},
      {"measurement": "inhibition of estrogen-stimulated ZR-75-1 tumor size", "setting": "[1]; EM-800 50 μg orally daily", "result": "93% and 93.5%"},
      {"measurement": "average tumor weight", "setting": "[1]; EM-800 50 μg orally daily", "result": "0.03 ± 0.01", "unit": "g"},
      {"measurement": "Complete response, (%)", "setting": "[1]; EM-800 100 μg orally daily", "result": 50.0, "unit": "%"},
      {"measurement": "Complete response, number", "setting": "[1]; EM-800 100 μg orally daily", "result": 8},
      {"measurement": "Partial response, (%)", "setting": "[1]; EM-800 100 μg orally daily", "result": "0 (0) %"},
      {"measurement": "Partial response, number", "setting": "[1]; EM-800 100 μg orally daily", "result": "0 (0)"},
      {"measurement": "Progression, (%)", "setting": "[1]; EM-800 100 μg orally daily", "result": 31.2, "unit": "%"},
      {"measurement": "Progression, number", "setting": "[1]; EM-800 100 μg orally daily", "result": 5},
      {"measurement": "Stable response, (%)", "setting": "[1]; EM-800 100 μg orally daily", "result": 18.8, "unit": "%"},
      {"measurement": "Stable response, number", "setting": "[1]; EM-800 100 μg orally daily", "result": 3},
      {"measurement": "inhibition of estrogen-stimulated ZR-75-1 tumor size", "setting": "[1]; EM-800 100 μg orally daily", "result": 94, "unit": "%"},
      {"measurement": "average tumor weight", "setting": "[1]; EM-800 100 μg orally daily", "result": "0.04 ± 0.03", "unit": "g"},
      {"measurement": "incidence of DMBA-induced mammary carcinoma (animals with palpable tumors)", "setting": "[2]; DHEA 10 mg percutaneously, EM-800 75 μg orally, once daily, control 95%", "result": 38, "unit": "%"},
      {"measurement": "average tumor number per tumor-bearing animal", "setting": "[2]; end of experiment, DHEA 10 mg, EM-800 75 μg daily, control 4.7±0.5", "result": "1.4±0.3", "unit": "tumors/animal"},
      {"measurement": "average tumor area per tumor-bearing animal", "setting": "[2]; end of experiment, DHEA 10 mg, EM-800 75 μg daily, control 12.8±1.3", "result": "7.7±1.8", "unit": "cm^2"},
      {"measurement": "function as SERM", "setting": "estrogen receptor", "result": "found to function as SERMs"},
      {"measurement": "decrease of daily urinary calcium excretion versus control", "setting": "rat", "result": "no statistically significant influence"},
      {"measurement": "decrease of daily urinary phosphorus excretion versus control", "setting": "rat", "result": "no statistically significant influence"},
      {"measurement": "decrease of urinary hydroxyproline/creatinine ratio versus control", "setting": "rat", "result": 48, "unit": "%"},
      {"measurement": "increase of serum total alkaline phosphatase (tALP) activity versus control", "setting": "rat", "result": "no statistically significant influence; also recorded: no effect"}
    ]}
  ]
}
